Test results from US20110046070A1, “GENE EXPRESSION INHIBITOR SELECTIVE FOR MATRIX METALLOPROTEINASE-9 GENE” (priority 2008, published 2011).

Columns and labels:
[1] = tested on: human uterine cervix cancer HeLa cells; assay: Wound-healing migration assay, HeLa; format: cell-based; conditions: 48 hours after the damage, various concentrations
Description: (§1) A human breast cancer MDA-MB-231 cell strain was used. The cells were cultured at 37° C. in a humid environment containing 5% CO^2 in an RPMI1640 medium (Sigma-Aldrich Corp., St. Louis, Mo., USA) supplemented with 100 μg/ml streptomycin, 100 units/ml penicillin and 10% fetal bovine serum (FBS) (Sigma-Aldrich Corp.). Human uterine cervix cancer HeLa cells were cultured in a Dulbecco's modified Eagle medium (DMEM, Invitrogen Life Technologies, Corp., Carlsbad, Calif.) containing 10% FBS and 2 mM L-glutamine.
(§2) To assay cellular migration in the process of wound healing, 3×10^5 cells were inoculated to each well of an 8-well chamber slide, and the cell layer was damaged using a plastic micropipette when the cells reached confluence. The medium and debris were removed by suction, and 100 μl of a fresh medium containing various polyamides was replaced therefor. 48 hours after the damage, the cells were fixed with Diff-Quik solution (SYSMEX INTERNATIONAL REAGENTS CO., LTD., Kobe, Japan), then stained, and photographed using a phase-contrast microscope.

[2] = tested on: MMP-9 gelatin degradation activity in culture supernatants of MDA-MB-231 cells; assay: Zymography assay using gelatin as a substrate; format: cell-based, human; conditions: 48 hours, MDA-MB-231 supernatant; for inhibition at 1 µM: read-out: inhibition of gelatin degradation activity compared with the control
Description: Proteins collected from culture supernatants of MDA-MB-231 cells were assayed using Novex (registered trademark) zymogram gelatin gel and XCell SureLock™ Mini-cell (Invitrogen Life Technologies, Corp.). The polyamides of the present invention were separately added at various concentrations to 2.5×10^5 cells. After 48-hour incubation, the supernatants were collected. Proteins from each sample were mixed with Novex (registered trademark) Tris-glycine SDS sample buffer (2×) and separated on a 10% zymogram gelatin gel. The gel was washed with a renaturing buffer and a developing buffer according to the manufacturer's manual. Then, the gel was digitized.

[3] = tested on: MDA-MB-231 cells; assay: Growth inhibition assay, MDA-MB-231; format: cell-based, human; conditions: MDA-MB-231, 0 μM to 30 μM, 72 hours, WST-8
Description: Cell growth inhibition test was conducted using MDA-MB-231 and HeLa cells. The HeLa cells were inoculated at a concentration of 2500 cells/well to a 96-well microtiter plate and incubated for 24 hours in 100 μl of Dulbecco's modified Eagle medium (DMEM) containing 10% fetal bovine serum (Invitrogen). Then, after medium replacement, the cells were cultured for 72 hours in a medium supplemented with 10% fetal bovine serum containing 0 μM to 30 μM (0 μM, 0.3 μM, 1 μM, 3 μM, 10 μM and 30 μM) polyamide HMMP9NFκβ, and 10 μl of live cell counting reagent SF (Nacalai Tesque, Inc.) was added thereto, followed by 2-hour color reaction. Absorbance was measured at 450 nm using an ARVO microtiter plate reader. This experiment was conducted by modified MTT assay (WST-8 ™: Nacalai Tesque, Inc.) using water-soluble formazan.

[4] = tested on: human breast cancer MDA-MB-231 cells; assay: Wound-healing migration assay, MDA-MB-231; format: cell-based; conditions: 48 hours after the damage, various concentrations, vs DMSO
Description: as §1, §2

[5] = tested on: liver metastasis of human colon cancer cell strain HT29 transplanted in the spleen; assay: Nude mouse models with liver metastasis from human colon cancer; format: in vivo, nude mice; conditions: HT29 cells cultured 1 hour with 10 μM polyamide, splenic transplantation, 6 weeks
Description: 5-week-old male nude mice (BALB/c Nude Mice CBy.Cg-Foxn1nu/J) (Jackson Laboratory) were purchased, maintained in a pathogen-free environment until 6 week olds, and used in the experiment. A human colon cancer cell strain HT29 was monolayer-cultured in a 100-cm^2 cell culture flask and treated with 0.05% trypsin and 0.02% EDTA solutions before reaching confluence. The cells were collected, centrifuged at 800 rpm for 3 minutes, then washed with PBS containing neither Ca^2+ nor Mg^2+, and cultured for 1 hour in a culture solution adjusted to a polyamide concentration of 10 μM or a polyamide-free culture solution. Then, a cell suspension having a concentration of 3×10^6 cells in 100 μl again was prepared using PBS. The thus-prepared 3 groups of the cells containing HMMP9NFκβ polyamide, containing mismatch polyamide and in polyamide-free PBS were separately administered to the nude mice (6 individuals/group). Longitudinal incision was made in the skin on the left side of the abdominal regions of the nude mice under anesthesia. After peritoneotomy to the spleen, 100 μl of the colon cancer cell suspension was transplanted to the splenic subcapsular region using a 29-G injection needle (FIG. 29A). The reliable splenic subcapsular transfer of the cell grafts was confirmed based on change in the color tone of the cell-transplanted site through the splenic capsule and the absence of bleeding or leakage of the suspension. After the transplantation, the mice were raised for 6 weeks and subjected to autopsy. The livers and the spleens were extracted, fixed in a 10% buffered formalin solution, then histologically stained with hematoxylin eosin, and subjected to microscopic observation. […] The liver metastatic foci are circled in the preparations.

[6] = tested on: binding of NF-κβ protein with the MMP-9 promoter region; assay: Immunoprecipitation/PCR assay with anti-NF-κβ antibodies; format: cell-based, human; conditions: 1 μM, 4 hours, MDA-MB-231 and HeLa cells
Description: Immunoprecipitation/PCR assay with anti-NF-κβ antibodies was conducted using MDA-MB-231 and HeLa cells. The MDA-MB-231 and HeLa cells were separately inoculated to a 100-mm culture dish and cultured for 24 hours in […] of Dulbecco's modified Eagle medium (DMEM) containing 10% fetal bovine serum (Invitrogen) and then with 1 μM match polyamide HMMP9NFκβ or 1 μM mismatch polyamide (shown in FIG. 26) for 4 hours. Protein-DNA complexes were fixed in 1% formaldehyde, reacted with specific NF-κB p65 antibodies and nonspecific rabbit immunoglobulin G antibodies, and collected by precipitation as antibody-protein-DNA complexes using Protein A beads. From the protein-DNA complexes, DNA was separated through reaction with 5 M NaCl and subjected to amplification reaction using PCR primers flanking the NFκβ binding sequence of MMP9. The NFκβ-bound DNA of an MMP9 gene promoter region is identified as a PCR product.
An MMP-9 promoter region from −657 to −484 was amplified using PCR primers (forward: 5′-TGTCCCTTTACTGCCCTGA-3′ (SEQ ID NO: 20) and reverse: 5′-[…]-3′ (SEQ ID NO: 21)) (Schwingshackl A, Duszyk M, Brown N, Moqbel R. HμMan eosinophils release matrix metalloproteinase-9 on stimulation with TNF-α. J Allergy Clin Immunol 104: 983-989, 1999).

NF-κβ p65-NF-κβ binding region complex of the MMP-9 promoter in immunoprecipitation with anti-NF-κβ p65 antibodies [6] | SMILES | migration of HeLa cells [1] | inhibition of gelatin degradation activity (enzymatic activity of MMP-9) ([2]; 10 μM) | inhibition at 1 µM ([2]; Homo sapiens) [%] | number of live cells (growth inhibition) [3] | migration of MDA-MB-231 cells [4] | inhibition at 10 µM ([2]; Homo sapiens, 10 μM, read-out: inhibition of gelatin degradation activity (enzymatic activity of MMP-9)) [%] | area of liver metastatic foci [5] | number of liver metastatic foci [5] | size of liver metastatic foci [5]
 | CC(=O)Nc1cn(C)c(C(=O)Nc2cc(C(=O)NCCC(=O)Nc3cn(C)c(C(=O)Nc4cc(C(=O)Nc5cc(C(=O)NCCCC(=O)Nc6cn(C)c(C(=O)Nc7cn(C)c(C(=O)Nc8cc(C(=O)NCCC(=O)Nc9cn(C)c(C(=O)Nc%10cc(C(=O)NCCC(=O)NCCCN(C)C)n(C)c%10)n9)n(C)c8)n7)n6)n(C)c5)n(C)c4)n3)n(C)c2)n1 [HMMP9AP1] | inhibited the migrations | almost completely | 50 | decreased the number of live cells | inhibit the migration of MDA-MB-231 cells in a concentration-dependent manner |  |  |  | 
not detected | CC(=O)Nc1cc(C(=O)Nc2cc(C(=O)NCCC(=O)Nc3cc(C(=O)Nc4cc(C(=O)NCCCC(=O)Nc5cn(C)c(C(=O)Nc6cn(C)c(C(=O)NCCC(=O)Nc7cc(C(=O)Nc8cc(C(=O)NCCC(=O)NCCCN(C)C)n(C)c8)n(C)c7)n6)n5)n(C)c4)n(C)c3)n(C)c2)n(C)c1 [HMMP9NFκβ] | inhibit the migration of HeLa cells in a concentration-dependent manner |  | 62 | decreased the number of live cells in a concentration-dependent manner | inhibit the migration of MDA-MB-231 cells in a concentration-dependent manner | 82 | small | distinctly small | distinctly small
